The text below walks through data of publication PMC4416907, “An Unexpected Mode Of Binding Defines BMS948 as A Full Retinoic Acid Receptor β (RARβ, NR1B2) Selective Agonist” (PLoS ONE, 2015).

In one experiment the test system is T1, human RARα1.
T1 construct: expressed in transfected cells; host or cells: HeLa
The experiment can be described thus: Transient transactivation reporter assay, (RARE)3x-tk-luciferase in HeLa cells, agonist mode. The experiment is classed as cell-based. The conditions noted are these: for agonistic activity on RARα-mediated transactivation: HeLa cells, ligand at single selective concentration, compared with 10 nM TTNPB (100%). An excerpt:
(§1) To evaluate the activity of a panel of synthetic retinoids (Fig 1) on RAR-mediated transactivation, we used HeLa cells transiently transfected with human RARα1,-β2, or—γ2 and a (RARE)3x-tk-luciferase reporter gene. Well characterized full agonist and antagonist retinoids were also used as reference compounds (S2 Fig). […] To further characterize the activation profile of BMS compounds, transfected cells were exposed to a range of ligand concentrations to establish dose-response curves.
(§2) (A to C) HeLa cells were transiently cotransfected with the reporter (RARE)3x-tk-Luc and RARα (A), RARβ (B) or RARγ (C), as indicated, to assess the RAR agonist potential of synthetic RAR ligands.
(§3) HeLa cells were cultured in DMEM with Glutamax and 10% (v/v) FCS and transfected using JetPei transfectant (Ozyme). After 24 h, the medium was changed to a medium containing the indicated ligands or vehicle. Cells were lysed and assayed for reporter expression 48 h after transfection. The luciferase assay system was used according to the manufacturer’s instruction (Promega). In each case results were normalized to coexpressed β–galactosidase. Each transfection was carried out in duplicate and repeated each three to six times.

A further experiment relates to T2, human RARγ2.
T2 construct: expressed in transfected cells; host or cells: HeLa
The description is as above. The experiment is classed as cell-based.
Excerpt: as §1, §2, §3

The target of another experiment is T3, human RARβ2 (Homo sapiens, UniProt P10826).
T3 construct: expressed in transfected cells; host or cells: HeLa
T3 sequence (P10826 1-448 isoform P10826-2): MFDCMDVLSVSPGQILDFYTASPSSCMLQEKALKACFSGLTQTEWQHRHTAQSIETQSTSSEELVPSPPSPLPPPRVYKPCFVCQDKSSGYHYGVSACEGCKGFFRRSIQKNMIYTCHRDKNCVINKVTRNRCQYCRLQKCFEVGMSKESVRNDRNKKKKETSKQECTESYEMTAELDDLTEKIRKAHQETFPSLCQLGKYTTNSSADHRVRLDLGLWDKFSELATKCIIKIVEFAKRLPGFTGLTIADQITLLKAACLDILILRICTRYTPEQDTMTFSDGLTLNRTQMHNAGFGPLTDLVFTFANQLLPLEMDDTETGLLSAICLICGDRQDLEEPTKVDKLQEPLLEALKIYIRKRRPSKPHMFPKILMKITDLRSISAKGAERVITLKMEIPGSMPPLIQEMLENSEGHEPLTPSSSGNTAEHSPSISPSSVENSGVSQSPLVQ
The experiment is described as above. The experiment is classed as cell-based.
Excerpt: as §1, §2, §3

Another experiment has as its target T4, RARα (Homo sapiens, UniProt P10276).
T4 construct: expressed in transfected cells; host or cells: HeLa
T4 sequence (P10276 1-462): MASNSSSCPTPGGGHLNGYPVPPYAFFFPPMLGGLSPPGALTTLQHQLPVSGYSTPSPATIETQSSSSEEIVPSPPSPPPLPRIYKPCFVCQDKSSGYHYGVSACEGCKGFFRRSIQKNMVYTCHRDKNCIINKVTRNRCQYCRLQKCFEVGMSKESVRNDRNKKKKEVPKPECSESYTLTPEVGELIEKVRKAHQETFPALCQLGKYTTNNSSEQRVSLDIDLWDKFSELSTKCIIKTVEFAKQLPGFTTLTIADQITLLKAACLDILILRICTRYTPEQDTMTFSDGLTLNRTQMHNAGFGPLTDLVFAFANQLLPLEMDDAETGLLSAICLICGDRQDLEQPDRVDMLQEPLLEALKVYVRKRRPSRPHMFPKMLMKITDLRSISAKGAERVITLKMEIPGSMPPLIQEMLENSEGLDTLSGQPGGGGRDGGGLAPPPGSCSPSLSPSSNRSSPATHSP
Briefly: Transient transactivation assay, antagonist mode (competition with TTNPB-induced activity). The experiment is classed as cell-based. The following applies: reporter activated with 3 nM TTNPB (100%); retinoids at 1 μM or increasing amounts. As to the method: (§4) To this end, transient transactivation assays were conducted in order to assess the ability of the synthetic retinoids to affect TTNPB-induced RAR activity. […] Competition curves with increasing concentrations of BMS411 yielded an IC50 of roughly 30 nM for RARα in keeping with the high affinity of this compound for this receptor subtype (Fig 3D). […] Overall, our data lead to the general conclusion that BMS948 is a full RARβ-selective agonist.
(§5) Fig 3 BMS948 is an RARβ-selective ligands. (A to C) Transient transactivation assays as in Fig 2 to assess the antagonist potential of synthetic RAR ligands (RARα (A), RARβ (B) or RARγ (C)).
as §3

In the next experiment the test system is T5, RARβ→γ.
T5 construct: expressed in transfected cells; host or cells: HeLa
The experiment can be described thus: Transient transactivation assay with chimeric LBP mutant RARβ→γ in HeLa cells. The experiment is classed as cell-based. An excerpt:
(§6) Supplementary file pone.0123195.s004.eps: S4 Fig The methionine 272 of RARγ LBP is a most important discriminatory element for the RARβ-specific response to BMS948. […] To investigate the role of these residues in the RARβ–specific response to BMS948, we compared the agonistic and antagonistic potentials of this compound for RARβ and RARγ, as well as chimeric RAR mutants in which LBPs were interconverted (denoted RARβ→γ and RARγ→β). Dose-response curves were established from transient transfection in HeLa cells of these proteins and a (RARE)3x-tk-luciferase reporter gene as described in Figs 2 and 3. […] (A) HeLa cells were transiently cotransfected with the reporter (RARE)3x-tk-Luc and RARβ (open circles), RARγ (closed diamonds), RARγ→β in which the methionine residue 272 in RARγ LBP is replaced by an isoleucine residue (open squares), or RARβ→γ in which the isoleucine residue 263 in RARβ LBP is replaced by a methionine residue (closed triangles) to assess the agonist potential of BMS948. […] (B) Transient transfection assays in HeLa cells with the reporter (RARE)3x-tk-Luc and RARβ→γ as in (A) to assess the antagonist potential of BMS948 and BMS493. […] (EPS) Click here for additional data file.

The subject of another experiment is T6, hRARβL298F.
T6 construct: expressed in transfected cells; host or cells: HeLa
The experiment can be described thus: Transient transactivation assay with mutant hRARβL298F in HeLa cells. The experiment is classed as cell-based, human. As to the method: The construct was verified by DNA sequencing.
as §3
(EPS) Click here for additional data file.

The subject of the next experiment is T7, RARγ→β.
T7 construct: expressed in transfected cells; host or cells: HeLa
Briefly: Transient transactivation assay with chimeric LBP mutant RARγ→β in HeLa cells. The experiment is classed as cell-based. The conditions noted are these: 10^–9 to 10^–6 M; 100% = TTNPB at 10nM.
Excerpt: as §6

For a further experiment, the system named is T8, RARβ-SMRT interaction.
T8 construct: expressed in transfected cells; host or cells: HeLa
Briefly: Mammalian two-hybrid assay Gal-SMRT / VP16-RARβLBD in HeLa cells. The conditions noted are these: BMS compounds at 1 μM, TTNPB 10 nM; 100% = absence of ligand. The experiment is classed as cell-based. An excerpt: (§7) Supplementary file pone.0123195.s005.eps: S5 Fig Molecular basis of BMS641 partial activity. According to the current model of gene regulation by RARs, the agonistic property of a given retinoid depends on its ability to induce coregulator recruitment. RAR agonists dissociate corepressors (such as SMRT) and induce the recruitment coactivators (such as TIF2), resulting in transactivation. […] BMS641 was therefore categorized as a partial RARβ agonist. To further characterize the partial activity of BMS641, we used two-hybrid assays to monitor the interaction between RARβ and transcriptional coregulators in the presence of various retinoids. In these assays, a chimeric luciferase-based reporter gene ((17 m)5x-βGlob-Luc) is transfected together with two expression vectors. One expresses a fusion protein (Gal-TIF2 or Gal-SMRT) that binds through the Gal DNA binding domain (Gal) to the pentamer of the “17m” DNA recognition site in the reporter gene and contains the nuclear receptor interacting domain of the coregulator. The other vector expresses a second fusion protein composed of the VP16 acidic transcription activation domain, and the LBD of RARβ. […] Strikingly, the RARβ-SMRT interaction was maintained in the presence of BMS641, in agreement with the partial agonistic activity of this compound. […] BMS641 induces reduced coactivator recruitment, but cannot dissociate corepressors. […]

The subject of experiment [1] is T9, RARβ.
T9 construct: expressed in transfected cells; host or cells: HeLa
Briefly: Transient transactivation assay, antagonist mode (competition with TTNPB-induced activity). The experiment is classed as cell-based, human. The following applies: reporter activated with 3 nM TTNPB (100%); retinoids at 1 μM or increasing amounts. As to the method:
as §4, §5, §3

In experiment [2] the test system is T10, RARγ.
T10 construct: expressed in transfected cells; host or cells: HeLa
Described as above. The experiment is classed as cell-based, human. The conditions noted are these: reporter activated with 3 nM TTNPB (100%); retinoids at 1 μM or increasing amounts. The method, then: as §4, §5, §3

A further experiment deals with T11, RARβ-TIF2 interaction.
T11 construct: expressed in transfected cells; host or cells: HeLa
Briefly: Mammalian two-hybrid assay Gal-TIF2 / VP16-RARβLBD in HeLa cells. The conditions noted are these: BMS compounds at 1 μM, TTNPB 10 nM. The experiment is classed as cell-based.
Excerpt: as §7

Experiment [3] deals with RARγ. The following applies: also personal data not shown; cited from earlier work.
Experiment [4] deals with RARβ. The conditions noted are these: cited from earlier work.
The mark [5] stands for this setting: 10^–10 to 10^–6 M, only at the highest ligand concentration used (1 μM).

With `CC1(C)CCC(C)(C)c2cc(C(=O)Nc3ccc(C(=O)O)cc3)ccc21` [Am580, reference compound], the “agonistic activity on RARα-mediated transactivation” value with human RARα1 is listed as “full agonistic activity”.

For the compound `O=C(O)c1ccc(NC(=O)c2ccc3cccc(-c4ccccc4)c3c2)cc1` [BMS948], the “activation of RARγ in dose-response curves” value with human RARγ2 (setting [5]) is recorded as “very weakly”. In addition, the “agonistic activity on RARγ-mediated transactivation” value in the experiment on human RARγ2 (HeLa cells, ligand at single selective concentration, compared with 10 nM TTNPB (100%)) is on record as “very weak activity”. The concentration for a half-maximal effect (EC50) on human RARβ2 (dose-response 10^–10 to 10^–6 M, read-out: EC50 transactivation for RARβ) was approximately 100 nM. Also, the “agonistic activity on RARβ-mediated transactivation” value at human RARβ2 (ligand at single selective concentration, compared with 10 nM TTNPB (100%)) is given as “full RARβ-agonist”. Besides, the “activation of RARα in dose-response curves” value with human RARα1 (setting [5]) is reported as “very weakly”. Also, in the experiment on human RARα1, the “agonistic activity on RARα-mediated transactivation” value is given as “very weak activity”. Besides, the “antagonistic activity on TTNPB-induced RARα transactivation” value on RARα is “very weak”. For the same compound, the “antagonist potential on RARβ→γ” value in the experiment with RARβ→γ (3 nM TTNPB (100%) plus compound at 1 μM) was “did not reduce TTNPB-induced activity”. Further, in the experiment with RARβ→γ (10^–9 to 10^–6 M, 100% = TTNPB at 10nM, only at high concentration), the “agonist potential on RARβ→γ” value is on record as “very weak activation”. Moreover, the “efficacy on RARβL298F in dose-response curves” value with hRARβL298F (S6 Fig, increasing concentrations) is listed as 70%. Also, in the experiment on hRARβL298F (retinoids at 0.1 μM, 10 nM TTNPB = 100% with wild-type hRARβ), the “transcriptional activity on RARβL298F as compared to TTNPB” value is 50–60%. In addition, the “agonist potential on RARγ→β” value in the experiment on RARγ→β is recorded as “potent full agonist”. In addition, in the experiment on RARβ-SMRT interaction, the “RARβ-SMRT interaction (corepressor binding)” value is reported as “decreased”. Besides, the “antagonistic activity on TTNPB-induced RARβ transactivation” value with RARβ [1] is recorded as “no”. Besides, the “antagonistic activity on TTNPB-induced RARγ transactivation” value with RARγ [2] is listed as “very weak”. Further, in the experiment on RARβ-TIF2 interaction, the “RARβ-TIF2 interaction (coactivator recruitment)” value is recorded as “optimal”.

Take `CN1c2cc3c(cc2N=C(c2ccc(C(=O)O)cc2)c2ccccc21)C(C)(C)CCC3(C)C` [LE135]: the “reported activity on RARγ” value with RARγ [3] is recorded as “some RARγ partial agonistic activity”. Moreover, the “reported activity on RARβ” value in the experiment on RARβ [4] is on record as “antagonist showing some selectivity for RARβ”.

As usually defined, the EC50 is the concentration that produces a half-maximal response.
